Laboratory results: PubChem BioAssay (NCI)
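A five-concentration, 48-hour dose response in 96-well plates underlies each endpoint, interpolated linearly between surrounding concentrations. TGI denotes the concentration required for complete inhibition of growth.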

Key:
Experiment in all cases: DTP human tumour cell line panel, 48 h
[1] = test system: MOLT-4 leukemia
[2] = test system: SF-539 CNS
[3] = test system: SR leukemia
[4] = test system: DMS 114 small cell lung
[5] = test system: HCC-2998 colon
[6] = test system: UACC-257 melanoma
[7] = test system: 786-0 renal
[8] = test system: OVCAR-8 ovarian
[9] = test system: SK-MEL-5 melanoma
[10] = test system: XF 498 CNS
[11] = test system: OVCAR-3 ovarian
[12] = test system: MALME-3M melanoma
[13] = test system: KM12 colon
[14] = test system: A498 renal
[15] = test system: CAKI-1 renal
[16] = test system: ACHN renal
[17] = test system: NCI-H522 lung
[18] = test system: NCI-H23 lung
[19] = test system: RXF 393 renal
[20] = test system: UO-31 renal
[21] = test system: HOP-18 NSCLC
[22] = test system: SNB-78 CNS
[23] = test system: OVCAR-4 ovarian
[24] = test system: HT29 colon
[25] = test system: EKVX NSCLC
[26] = test system: SNB-19 CNS
[27] = test system: UACC-62 melanoma
[28] = test system: M14 melanoma
[29] = test system: DMS 273 small cell lung
[30] = test system: SK-MEL-2 melanoma
[31] = test system: RPMI-8226 leukemia
[32] = test system: HOP-62 NSCLC
[33] = test system: OVCAR-5 ovarian
[34] = test system: A549 NSCLC
[35] = test system: K-562 leukemia
[36] = test system: SN12C renal
[37] = test system: U251 CNS
[38] = test system: HCT-15 colon
[39] = test system: NCI-H460 lung
[40] = test system: LOX IMVI melanoma
[41] = test system: COLO 205 colon
[42] = test system: TK-10 renal
[43] = test system: DLD-1 colon
[44] = test system: HCT-116 colon
[45] = test system: SF-295 CNS
[46] = test system: IGROV1 ovarian
[47] = test system: SF-268 CNS
[48] = test system: SK-MEL-28 melanoma
[49] = test system: KM20L2 colon
[50] = test system: NCI-H226 lung
[51] = test system: LXFL 529 NSCLC
[52] = test system: SW-620 colon
[53] = test system: SNB-75 CNS
[54] = test system: HOP-92 NSCLC
[55] = test system: HL-60(TB) leukemia
[56] = test system: SK-OV-3 ovarian
[57] = test system: CCRF-CEM leukemia
[58] = test system: M19-MEL melanoma

SMILES: O=C(c1ccccc1)c1ccc2cccc(OC3OC(CO)C(O)C(O)C3O)c2n1 (centres undefined)
- TGI [1]: > 100 µM
- TGI [2]: > 100 µM
- TGI [3]: > 100 µM
- TGI [4]: > 100 µM
- TGI [5]: > 100 µM
- TGI [6]: > 100 µM
- TGI [7]: > 100 µM
- TGI [8]: > 100 µM
- TGI [9]: > 100 µM
- TGI [10]: > 100 µM
- TGI [11]: > 100 µM
- TGI [12]: > 100 µM
- TGI [13]: > 100 µM
- TGI [14]: 82 µM
- TGI [15]: > 100 µM
- TGI [16]: > 100 µM
- TGI [17]: > 100 µM
- TGI [18]: > 100 µM
- TGI [19]: > 100 µM
- TGI [20]: > 100 µM
- TGI [21]: > 100 µM
- TGI [22]: > 100 µM
- TGI [23]: > 100 µM
- TGI [24]: > 100 µM
- TGI [25]: > 100 µM
- TGI [26]: > 100 µM
- TGI [27]: > 100 µM
- TGI [28]: > 100 µM
- TGI [29]: > 100 µM
- TGI [30]: > 100 µM
- TGI [31]: > 100 µM
- TGI [32]: > 100 µM
- TGI [33]: > 100 µM
- TGI [34]: > 100 µM
- TGI [35]: > 100 µM
- TGI [36]: > 100 µM
- TGI [37]: > 100 µM
- TGI [38]: > 100 µM
- TGI [39]: > 100 µM
- TGI [40]: > 100 µM
- TGI [41]: > 100 µM
- TGI [42]: > 100 µM
- TGI [43]: > 100 µM
- TGI [44]: > 100 µM
- TGI [45]: > 100 µM
- TGI [46]: > 100 µM
- TGI [47]: > 100 µM
- TGI [48]: > 100 µM
- TGI [49]: > 100 µM
- TGI [50]: > 100 µM
- TGI [51]: > 100 µM
- TGI [52]: > 100 µM
- TGI [53]: > 100 µM

SMILES: Cc1cccc(C)c1NC(=O)C(=O)C(C#N)c1ccccc1 (centres undefined)
- TGI [1]: > 100 µM
- TGI [2]: > 100 µM
- TGI [4]: > 100 µM
- TGI [5]: > 100 µM
- TGI [6]: > 100 µM
- TGI [7]: > 100 µM
- TGI [8]: > 100 µM
- TGI [9]: > 100 µM
- TGI [10]: > 100 µM
- TGI [54]: > 100 µM
- TGI [11]: > 100 µM
- TGI [12]: > 100 µM
- TGI [13]: > 100 µM
- TGI [14]: > 100 µM
- TGI [15]: > 100 µM
- TGI [16]: > 100 µM
- TGI [17]: > 100 µM
- TGI [18]: > 100 µM
- TGI [19]: > 100 µM
- TGI [20]: > 100 µM
- TGI [21]: > 100 µM
- TGI [22]: > 100 µM
- TGI [23]: > 100 µM
- TGI [24]: > 100 µM
- TGI [25]: > 100 µM
- TGI [26]: > 100 µM
- TGI [27]: > 100 µM
- TGI [55]: > 100 µM
- TGI [28]: > 100 µM
- TGI [29]: > 100 µM
- TGI [30]: > 100 µM
- TGI [56]: > 100 µM
- TGI [32]: > 100 µM
- TGI [33]: > 100 µM
- TGI [34]: > 100 µM
- TGI [35]: > 100 µM
- TGI [57]: > 100 µM
- TGI [36]: > 100 µM
- TGI [37]: > 100 µM
- TGI [38]: > 100 µM
- TGI [39]: > 100 µM
- TGI [40]: > 100 µM
- TGI [41]: > 100 µM
- TGI [42]: > 100 µM
- TGI [58]: > 100 µM
- TGI [43]: > 100 µM
- TGI [44]: > 100 µM
- TGI [45]: > 100 µM
- TGI [46]: > 100 µM
- TGI [47]: > 100 µM
- TGI [48]: > 100 µM
- TGI [49]: > 100 µM
- TGI [50]: > 100 µM
- TGI [51]: > 100 µM
- TGI [52]: > 100 µM
- TGI [53]: > 100 µM
